Source: patent US5763430A, “Method of treating a viral infection by administering a steroid compound” (priority 1995, dated 1998)
≈ marks a conversion by molar mass, not a printed value. Like-named read-outs stand apart in the source and are kept apart here.

Tests used:
P. aerug = assay: antibiotic activity (MIC); type: cell-based; conditions: P. aerug; read-out: MIC
Excerpt: (§1) Thus, it is possible to achieve an antimicrobial steroid with or without squalamine-like pharmacological activity.

E. coli = assay: antibiotic activity (MIC); type: cell-based; conditions: Escherichia coli
Excerpt: as §1

S. aureus = assay: antibiotic activity (MIC); type: cell-based; conditions: Staphylococcus aureus
Excerpt: as §1

C. albicans = assay: antibiotic activity (MIC); type: cell-based; conditions: Candida albicans; C. albicans; read-out: MIC
Excerpt: as §1

[1] = tested on: stage 59-60 Xenopus tadpole; assay: Xenopus tadpole assay; conditions: in vivo

Row | SMILES | MIC (P. aerug) | MIC (E. coli; E. coli, read-out: MIC) | MIC (S. aureus; S. aureus, read-out: MIC) | MIC (C. albicans) | similarity of pharmacologic activity in tadpole assay [1] | MIC (E. coli) | MIC (S. aureus)
1 | CC(C)CCC[C@@H](C)[C@H]1CC[C@H]2[C@@H]3CC[C@H]4C[C@@H](NCCCNCCCCN)CC[C@]4(C)[C@H]3CC[C@]12C [Compound 303] | 128 µg/mL (≈ 248 µM) | 128 to 256 µg/mL (≈ 248 to 496 µM) | 8 µg/mL (≈ 15.5 µM) | 256 µg/mL (≈ 496 µM) | – | – | –
2 | CC(C)CCC[C@@H](C)[C@H]1CC[C@H]2[C@@H]3CC[C@H]4C[C@H](NCCCNCCCCN)CC[C@]4(C)[C@H]3CC[C@]12C [Compound 304] | 128 µg/mL (≈ 248 µM) | 128 µg/mL (≈ 248 µM) | 2 to 4 µg/mL (≈ 3.88 to 7.75 µM) | 128 µg/mL (≈ 248 µM) | – | – | –
3 | C[C@H](CCC(=O)O)[C@H]1CC[C@H]2[C@@H]3CC[C@H]4C[C@H](NCCCNCCCCN)CC[C@]4(C)[C@H]3CC[C@]12C [Compound 318] | 64 µg/mL (≈ 127 µM) | 32 µg/mL (≈ 63.5 µM) | 128 µg/mL (≈ 254 µM) | > 256 µg/mL | – | – | –
4 | CC(C)CCC[C@@H](C)[C@H]1CC[C@H]2[C@@H]3CC[C@H]4C[C@H](NCCCNCCCCNCCCN)CC[C@]4(C)[C@H]3CC[C@]12C [Compound 354] | 64 µg/mL (≈ 112 µM) | 64 to 128 µg/mL (≈ 112 to 223 µM) | 8 µg/mL (≈ 14 µM) | 16 to 32 µg/mL (≈ 27.9 to 55.8 µM) | – | – | –
5 | COC(=O)CC[C@@H](C)[C@H]1CC[C@H]2[C@@H]3[C@H](O)C[C@@H]4C[C@@H](NCCCNCCCCN)CC[C@]4(C)[C@H]3CC[C@]12C [Compound 355] | > 256 µg/mL | 256 µg/mL (≈ 480 µM) | 64 µg/mL (≈ 120 µM) | 256 µg/mL (≈ 480 µM) | – | – | –
6 | COC(=O)CC[C@@H](C)[C@H]1CC[C@H]2[C@@H]3[C@H](O)C[C@@H]4C[C@H](NCCCNCCCCN)CC[C@]4(C)[C@H]3CC[C@]12C [Compound 356] | 64 µg/mL (≈ 120 µM) | 32 to 64 µg/mL (≈ 59.9 to 120 µM) | 4 µg/mL (≈ 7.49 µM) | 64 µg/mL (≈ 120 µM) | – | – | –
7 | CC(C)CCC[C@@H](C)[C@H]1CC[C@H]2[C@@H]3[C@H](O)C[C@H]4C[C@H](NCCCNCCCCN)CC[C@]4(C)[C@H]3CC[C@]12C [Compound 370] | 64 µg/mL (≈ 120 µM) | 32 µg/mL (≈ 60.2 µM) | 4 µg/mL (≈ 7.52 µM) | 2 µg/mL (≈ 3.76 µM) | pharmacologic activity similar to that seen for FX 3 | – | –
8 | CC(C)CCC[C@@H](C)[C@H]1CC[C@H]2[C@@H]3[C@H](O)C[C@H]4C[C@@H](NCCCNCCCCN)CC[C@]4(C)[C@H]3CC[C@]12C [Compound 371] | 64 µg/mL (≈ 120 µM) | 64 µg/mL (≈ 120 µM) | 4 µg/mL (≈ 7.52 µM) | 2 µg/mL (≈ 3.76 µM) | effects like those produced by compound 1436 | – | –
9 | COC(=O)CC[C@@H](C)[C@H]1CC[C@H]2[C@@H]3[C@H](O)C[C@H]4C[C@@H](NCCCNCCCCN)CC[C@]4(C)[C@H]3CC[C@]12C [Compound 380] | 64 µg/mL (≈ 120 µM) | 32 µg/mL (≈ 59.9 µM) | 4 to 8 µg/mL (≈ 7.49 to 15 µM) | 32 µg/mL (≈ 59.9 µM) | – | – | –
10 | C[C@H](CCC(=O)O)[C@H]1CC[C@H]2[C@@H]3[C@H](O)C[C@H]4C[C@@H](NCCCNCCCCN)CC[C@]4(C)[C@H]3CC[C@]12C [Compound 381] | 32 µg/mL (≈ 61.6 µM) | 64 µg/mL (≈ 123 µM) | 32 µg/mL (≈ 61.6 µM) | 128 µg/mL (≈ 246 µM) | – | – | –
11 | C[C@H](CCC(=O)O)[C@H]1CC[C@H]2[C@@H]3[C@H](O)C[C@H]4C[C@H](NCCCNCCCCN)CC[C@]4(C)[C@H]3CC[C@]12C [Compound 382] | 32 µg/mL (≈ 61.6 µM) | 64 µg/mL (≈ 123 µM) | 16 µg/mL (≈ 30.8 µM) | 32 µg/mL (≈ 61.6 µM) | – | – | –
12 | CC(C)C(O)CC[C@@H](C)[C@H]1CC[C@H]2[C@@H]3[C@H](O)C[C@H]4C[C@H](NCCCNCCCCN)CC[C@]4(C)[C@H]3CC[C@]12C (stereo partly drawn) [Compound 387, 3α-(1,5,10-Triazadecyl) cholestan-7α,24.xi.-diol] | 256 µg/mL (≈ 467 µM) | 128 µg/mL (≈ 234 µM) | 16 to 32 µg/mL (≈ 29.2 to 58.4 µM) | 64 µg/mL (≈ 117 µM) | – | – | –
13 | CC(C)C(CC[C@@H](C)[C@H]1CC[C@H]2[C@@H]3[C@H](O)C[C@H]4C[C@H](NCCCNCCCCN)CC[C@]4(C)[C@H]3CC[C@]12C)OS(=O)(=O)O (stereo partly drawn) [Compound 388, 3-Episqualamine] | 16 µg/mL (≈ 25.5 µM) | 4 to 8 µg/mL (≈ 6.37 to 12.7 µM) | 2 to 4 µg/mL (≈ 3.18 to 6.37 µM) | 16 µg/mL (≈ 25.5 µM) | – | – | –
14 | CC(C)CCC[C@@H](C)[C@H]1CC[C@H]2[C@@H]3CC[C@H]4C[C@H](NCCCN5CCCCN=C5N)CC[C@]4(C)[C@H]3CC[C@]12C [Compound 393] | > 256 µg/mL | – | – | 32 µg/mL (≈ 59.2 µM) | – | > 256 µg/mL | 3 µg/mL (≈ 5.55 µM)
15 | COC(=O)CC[C@@H](C)[C@H]1CC[C@H]2[C@@H]3[C@H](O)C[C@H]4C[C@H](NCCCNCCCCN)CC[C@]4(C)[C@H]3CC[C@]12C [Compound 394] | 64 µg/mL (≈ 120 µM) | 64 µg/mL (≈ 120 µM) | 4 µg/mL (≈ 7.49 µM) | 32 µg/mL (≈ 59.9 µM) | – | – | –
16 | COC(=O)CC[C@@H](C)[C@H]1CC[C@H]2[C@@H]3[C@H](O)C[C@H]4CC(NCCCNCCCCNCCCN)CC[C@]4(C)[C@H]3CC[C@]12C (stereo partly drawn) [Compound 395] | 64 µg/mL (≈ 108 µM) | 32 µg/mL (≈ 54.2 µM) | 4 µg/mL (≈ 6.77 µM) | 64 µg/mL (≈ 108 µM) | – | – | –
